Assay results as given in patent US11484539B2, “Compounds and their uses for alleviating menopause-associated symptoms” (Estetra SPRL, priority 2018, dated 2022).

Test system: post-menopausal women
Experiment: Weekly severity of moderate to severe VMS, dose-finding study
Format: in vivo
Excerpt: To determine the Minimum Effective Dose (MED), firstly the selection criteria required that patients presented at least 7 moderate to severe VMS/day or at least 50 moderate to severe VMS/week in the week preceding randomization. Secondly, a placebo group was included in a double-blind fashion. Thirdly, the total patient number was such that statistical significance could be obtained between separate arms of the study. Fourthly, the absolute change from baseline in weekly frequency of moderate to severe VMS was taken into account. An analysis of covariance (ANCOVA) was performed based on the untransformed change in weekly frequency of moderate to severe VMS from baseline. Finally, the change in severity from baseline was evaluated. For this, the Severity Scoring System of VMS was documented by the subjects as follows: • a score of Mild (1) for a sensation of heat without sweating; • a score of Moderate (2) for a sensation of heat with sweating/the subject is able to continue activity; and • a score of Severe (3) for a sensation of heat with sweating/which causes cessation of activity.
In addition, a severity score of zero was attributed to the patients who have experienced a 100% VMS relief during a given week.
From these score records, the severity at baseline was calculated by taking into account only moderate and severe VMS, such that the total number of moderate VMS during the 7 days of the baseline week was multiplied by 2 and added to the total number of severe VMS during the 7 days of the baseline week multiplied by 3. This total was then divided by the total number of moderate and severe VMS during the baseline week.
The severity at weeks 4 and 12 was calculated using the following formula for each of these weeks: • the number of mild VMS during 7 days multiplied by 1; • the number of moderate VMS during 7 days multiplied by 2; • the number of severe VMS during 7 days multiplied by 3. and adding the 3 resulting numbers together before dividing this total by the total number of mild, moderate and severe VMS during the 7 days of the week.
This method was used to generate the data included in Example 1 further below, under section A. b) “VMS Severity”.
In order to better analyse the data recorded in this study, treatment groups have been compared using an ANCOVA (analysis of covariance) with respect to the change in severity of moderate to severe VMS from baseline to mild, moderate and severe VMS at week 4 and week 12 for each active treatment versus placebo. For women who experienced 100% VMS relief at week 4 and/or week 12, a value of zero was attributed. The ANCOVA model includes treatment (“trt1”) as a fixed effect and baseline (“base”) as a covariate. • b) Covariate significance

C[C@]12CC[C@@H]3c4ccc(O)cc4CC[C@H]3[C@@H]1[C@@H](O)[C@@H](O)[C@@H]2O [E4, 1,3,5 (10)-estratrien-3,15alpha,16alpha,17beta-tetrol]
Difference with placebo, LS adjusted mean, relative change in weekly severity of moderate to severe VMS (5 mg E4 vs placebo, week 12): 0.1149 | LS adjusted mean change from baseline in weekly severity of moderate to severe VMS (10 mg E4, week 4): −0.4825 | LS adjusted mean relative change from baseline in weekly severity of moderate to severe VMS (10 mg E4, week 4): −0.2016 | LS adjusted mean relative change from baseline in weekly severity of moderate to severe VMS (10 mg E4, week 12): −0.2862 | Mean change from baseline in weekly severity of moderate to severe VMS (10 mg E4 QD per os, week 1): −0.2028 | Relative change (% from baseline) in weekly severity of moderate to severe VMS, mean (10 mg E4 QD per os, week 1): −8% | Mean change from baseline in weekly severity of moderate to severe VMS (10 mg E4 QD per os, week 2): −0.3007 | Relative change (% from baseline) in weekly severity of moderate to severe VMS, mean (10 mg E4 QD per os, week 2): −13% | Mean change from baseline in weekly severity of moderate to severe VMS (10 mg E4 QD per os, week 3): −0.3983 | Relative change (% from baseline) in weekly severity of moderate to severe VMS, mean (10 mg E4 QD per os, week 3): −17% | Mean change from baseline in weekly severity of moderate to severe VMS (10 mg E4 QD per os, week 4): −0.4842 | Relative change (% from baseline) in weekly severity of moderate to severe VMS, mean (10 mg E4 QD per os, week 4): −20% | Mean change from baseline in weekly severity of moderate to severe VMS (10 mg E4 QD per os, week 5): −0.5107 | Relative change (% from baseline) in weekly severity of moderate to severe VMS, mean (10 mg E4 QD per os, week 5): −21% | Mean change from baseline in weekly severity of moderate to severe VMS (10 mg E4 QD per os, week 6): −0.6086 | Relative change (% from baseline) in weekly severity of moderate to severe VMS, mean (10 mg E4 QD per os, week 6): −26% | Mean change from baseline in weekly severity of moderate to severe VMS (10 mg E4 QD per os, week 7): −0.643 | Relative change (% from baseline) in weekly severity of moderate to severe VMS, mean (10 mg E4 QD per os, week 7): −27% | Mean change from baseline in weekly severity of moderate to severe VMS (10 mg E4 QD per os, week 8): −0.6644 | Relative change (% from baseline) in weekly severity of moderate to severe VMS, mean (10 mg E4 QD per os, week 8): −28% | Mean change from baseline in weekly severity of moderate to severe VMS (10 mg E4 QD per os, week 9): −0.6864 | Relative change (% from baseline) in weekly severity of moderate to severe VMS, mean (10 mg E4 QD per os, week 9): −28% | Mean change from baseline in weekly severity of moderate to severe VMS (10 mg E4 QD per os, week 10): −0.709 | Relative change (% from baseline) in weekly severity of moderate to severe VMS, mean (10 mg E4 QD per os, week 10): −29% | Mean change from baseline in weekly severity of moderate to severe VMS (10 mg E4 QD per os, week 11): −0.666 | Relative change (% from baseline) in weekly severity of moderate to severe VMS, mean (10 mg E4 QD per os, week 11): −25% | Mean change from baseline in weekly severity of moderate to severe VMS (10 mg E4 QD per os, week 12): −0.6941 | Relative change (% from baseline) in weekly severity of moderate to severe VMS, mean (10 mg E4 QD per os, week 12): −28% | Difference with placebo, LS adjusted mean, absolute change in weekly severity of moderate to severe VMS (10 mg E4 vs placebo, week 4): −0.1547 | Difference with placebo, LS adjusted mean, relative change in weekly severity of moderate to severe VMS (10 mg E4 vs placebo, week 4): −0.06058 | Difference with placebo, LS adjusted mean, absolute change in weekly severity of moderate to severe VMS (10 mg E4 vs placebo, week 12): −0.03512 | Difference with placebo, LS adjusted mean, relative change in weekly severity of moderate to severe VMS (10 mg E4 vs placebo, week 12): −0.006415 | LS adjusted mean change from baseline in weekly severity of moderate to severe VMS (15 mg E4, week 4): −0.5888 | LS adjusted mean relative change from baseline in weekly severity of moderate to severe VMS (15 mg E4, week 4): −0.2427 | LS adjusted mean relative change from baseline in weekly severity of moderate to severe VMS (15 mg E4, week 12): −0.4375 | Mean change from baseline in weekly severity of moderate to severe VMS (15 mg E4 QD per os, week 1): −0.072 | Relative change (% from baseline) in weekly severity of moderate to severe VMS, mean (15 mg E4 QD per os, week 1): −3% | Mean change from baseline in weekly severity of moderate to severe VMS (15 mg E4 QD per os, week 2): −0.2853 | Relative change (% from baseline) in weekly severity of moderate to severe VMS, mean (15 mg E4 QD per os, week 2): −12% | Mean change from baseline in weekly severity of moderate to severe VMS (15 mg E4 QD per os, week 3): −0.4842 | Relative change (% from baseline) in weekly severity of moderate to severe VMS, mean (15 mg E4 QD per os, week 3): −20% | Mean change from baseline in weekly severity of moderate to severe VMS (15 mg E4 QD per os, week 4): −0.5897 | Relative change (% from baseline) in weekly severity of moderate to severe VMS, mean (15 mg E4 QD per os, week 4): −24% | Mean change from baseline in weekly severity of moderate to severe VMS (15 mg E4 QD per os, week 5): −0.7432 | Relative change (% from baseline) in weekly severity of moderate to severe VMS, mean (15 mg E4 QD per os, week 5): −31% | Mean change from baseline in weekly severity of moderate to severe VMS (15 mg E4 QD per os, week 6): −0.7035 | Relative change (% from baseline) in weekly severity of moderate to severe VMS, mean (15 mg E4 QD per os, week 6): −30% | Mean change from baseline in weekly severity of moderate to severe VMS (15 mg E4 QD per os, week 7): −0.8112 | Relative change (% from baseline) in weekly severity of moderate to severe VMS, mean (15 mg E4 QD per os, week 7): −34% | Mean change from baseline in weekly severity of moderate to severe VMS (15 mg E4 QD per os, week 8): −0.8854 | Relative change (% from baseline) in weekly severity of moderate to severe VMS, mean (15 mg E4 QD per os, week 8): −37% | Mean change from baseline in weekly severity of moderate to severe VMS (15 mg E4 QD per os, week 9): −0.9092 | Relative change (% from baseline) in weekly severity of moderate to severe VMS, mean (15 mg E4 QD per os, week 9): −38% | Mean change from baseline in weekly severity of moderate to severe VMS (15 mg E4 QD per os, week 10): −0.9628 | Relative change (% from baseline) in weekly severity of moderate to severe VMS, mean (15 mg E4 QD per os, week 10): −40% | Mean change from baseline in weekly severity of moderate to severe VMS (15 mg E4 QD per os, week 11): −1.0123 | Relative change (% from baseline) in weekly severity of moderate to severe VMS, mean (15 mg E4 QD per os, week 11): −42% | Mean change from baseline in weekly severity of moderate to severe VMS (15 mg E4 QD per os, week 12): −1.0425 | Relative change (% from baseline) in weekly severity of moderate to severe VMS, mean (15 mg E4 QD per os, week 12): −44% | Difference with placebo, LS adjusted mean, absolute change in weekly severity of moderate to severe VMS (15 mg E4 vs placebo, week 4): −0.261 | Difference with placebo, LS adjusted mean, relative change in weekly severity of moderate to severe VMS (15 mg E4 vs placebo, week 4): −0.1017 | Difference with placebo, LS adjusted mean, absolute change in weekly severity of moderate to severe VMS (15 mg E4 vs placebo, week 12): −0.3838 | Difference with placebo, LS adjusted mean, relative change in weekly severity of moderate to severe VMS (15 mg E4 vs placebo, week 12): −0.1577 | Reduction in the severity of moderate to severe VMS when compared to baseline (15 mg daily dose): over 40%
